Results reported in patent publication US20180116988A1, “METHODS OF PREVENTING AND TREATING AUTOIMMUNITY” (THE REGENTS OF THE UNIVERSITY OF COLORADO a body corporate, priority 2015, published 2018).
Like-named read-outs stand apart in the source and are kept apart here.

Columns and labels:
[1] = set-up: species or system human; details: in vivo
Excerpt: (§1) Human leukocyte antigen (HLA) alleles confer significant genetic risk for type 1 diabetes (T1D) with recent studies implicating DQ8 in its pathogenesis, and DQ8 antigen presentation can be inhibited with methyldopa in animal models. In this pilot study, the inventors evaluated methyldopa treatment in 10 DQ8 positive human subjects with T1D, ages 18-46 years (mean 27) with less than 2 years of diabetes duration (mean 3 months). This was an open label phase 1b dose escalation study.

DQ8 = target: T1, DQ8 (Homo sapiens, UniProt P01909+P01920, A209T/A45G/C70Q/D89A/E183D/E77G/F237L/G63E/H199R/I129T/K197E/L178F/L74F/L98V/N214S/Q57E/Q76R/S185I/S97I/T49S/V73L/Y58L); assay: DQ8-stimulated IL-2 T cell response in T1D patients treated with methyldopa (open label phase 1b dose escalation study); type: in vivo; details: for reduction in DQ8-stimulated IL-2 T cell response: DQ8 positive T1D subjects
T1 construct: endogenous in cells; host or cells: blood cells of DQ8-positive human T1D subjects treated with methyldopa
Excerpt: as §1

DR4 = DR4 T cell response in T1D patients treated with methyldopa; type: in vivo, human; details: T1D subjects treated with varying doses of methyldopa
Excerpt: as §1

[2] = Glucose control in T1D patients treated with methyldopa over 3 months; type: in vivo, human
Excerpt: as §1

T1 sequence (P01920 33-261 A45G/Y58L/E77G/D89A/H199R/N214S, other chains not shown): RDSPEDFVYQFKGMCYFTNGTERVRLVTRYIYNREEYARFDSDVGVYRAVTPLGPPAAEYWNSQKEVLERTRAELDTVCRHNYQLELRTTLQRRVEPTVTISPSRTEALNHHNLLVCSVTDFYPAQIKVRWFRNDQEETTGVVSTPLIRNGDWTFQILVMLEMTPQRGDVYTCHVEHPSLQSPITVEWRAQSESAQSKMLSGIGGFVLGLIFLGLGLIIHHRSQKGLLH

## C[C@](N)(Cc1ccc(O)c(O)c1)C(=O)O [methyldopa, α-Methyl-3,4-dihydroxyphenylalanine]
[1]; human
  subjects tolerating dosage: 9/10
[1]
  serious adverse events (hypotension, DKA, or hypoglycemia): No serious adverse events
  subjects tolerating dosage: All subjects tolerated
DQ8; 6 weeks after stopping therapy
  DQ8-stimulated IL-2 T cell response after stopping therapy: returned to normal
DQ8; at 1 week of dose escalation
  reduction in DQ8-stimulated IL-2 T cell response: 32%
DQ8; at 3 weeks of dose escalation
  reduction in DQ8-stimulated IL-2 T cell response: 39%
DR4
  DR4 T cell responses: minimally effected
[2]
  glycemic control: good glycemic control
